# Laboratory results published in the supplement of paper PMC10307832.
# What was measured:
# Assay in all cases: relative viability (nuclei count vs DMSO), 5 days (fraction); higher = more cells survive
# Serdemetan + Luminespib = compound: c1ccc2c(CCNc3ccc(Nc4ccncc4)cc3)c[nH]c2c1 [Serdemetan] + CCNC(=O)c1noc(-c2cc(C(C)C)c(O)cc2O)c1-c1ccc(CN2CCOCC2)cc1 [Luminespib] (partner 0.01 µM)
# Summary of the method: (§1)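 Lung cancer cell lines were seeded in 1536-well plates and dosed by pin tool the next day, with either a single drug or a fixed anchor-drug dose combined with five library-drug doses (not always all listed) spaced in √10 steps. Five days later, one step fixed the cells and stained their nuclei (final 0.05% Triton X-100, 1% formaldehyde, 1 ug/ml Hoechst), and nuclei were counted on 4× images. Relative viability is the nuclei count in treated wells divided by the count in vehicle wells, and each value is the median of duplicate plates.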
# Selisistat + Phenformin = compound: C1CC(C2=C(C1)C3=C(N2)C=CC(=C3)Cl)C(=O)N [Selisistat] + N=C(N)NC(=N)NCCc1ccccc1 [Phenformin] (partner 250 µM)
# Summary of the method: as §1
# Selisistat + Olaparib = compound: C1CC(C2=C(C1)C3=C(N2)C=CC(=C3)Cl)C(=O)N [Selisistat] + O=C(c1cc(Cc2n[nH]c(=O)c3ccccc23)ccc1F)N1CCN(C(=O)C2CC2)CC1 [Olaparib] (partner 8 µM)
# Summary of the method: as §1
# Selisistat + OSI-027 = compound: C1CC(C2=C(C1)C3=C(N2)C=CC(=C3)Cl)C(=O)N [Selisistat] + COc1cccc2cc(-c3nc([C@H]4CC[C@H](C(=O)O)CC4)n4ncnc(N)c34)[nH]c12 [OSI-027] (partner 0.5 µM)
# Summary of the method: as §1
cell line,measurement,setting,value
UMC-11,relative viability,Serdemetan + Luminespib; first compound 0.04 µM,0.938
same,relative viability,Serdemetan + Luminespib; first compound 0.1265 µM,1.01
same,relative viability,Serdemetan + Luminespib; first compound 4 µM,0.852
same,relative viability,Selisistat + Phenformin; first compound 0.4 µM,0.337
same,relative viability,Selisistat + Phenformin; first compound 1.265 µM,0.303
same,relative viability,Selisistat + Phenformin; first compound 4 µM,0.302
same,relative viability,Selisistat + Phenformin; first compound 12.65 µM,0.288
same,relative viability,Selisistat + Phenformin; first compound 40 µM,0.303
same,relative viability,Selisistat + Olaparib; first compound 0.4 µM,0.331
same,relative viability,Selisistat + Olaparib; first compound 1.265 µM,0.356
same,relative viability,Selisistat + Olaparib; first compound 4 µM,0.271
same,relative viability,Selisistat + Olaparib; first compound 12.65 µM,0.334
same,relative viability,Selisistat + Olaparib; first compound 40 µM,0.353
same,relative viability,Selisistat + OSI-027; first compound 0.4 µM,0.498
same,relative viability,Selisistat + OSI-027; first compound 1.265 µM,0.398
same,relative viability,Selisistat + OSI-027; first compound 4 µM,0.385
same,relative viability,Selisistat + OSI-027; first compound 12.65 µM,0.476
same,relative viability,Selisistat + OSI-027; first compound 40 µM,0.46
